ChEMBL document CHEMBL1129885, “Rational design of selective thrombin inhibitors” (Bioorg Med Chem Lett, 1997)

What was measured:
Serine protease 1 = target: T1, Serine protease 1 (Bos taurus, UniProt P00760); assay: Inhibitory effect of compound was measured in bovine trypsin
T1 sequence (P00760 whole entry): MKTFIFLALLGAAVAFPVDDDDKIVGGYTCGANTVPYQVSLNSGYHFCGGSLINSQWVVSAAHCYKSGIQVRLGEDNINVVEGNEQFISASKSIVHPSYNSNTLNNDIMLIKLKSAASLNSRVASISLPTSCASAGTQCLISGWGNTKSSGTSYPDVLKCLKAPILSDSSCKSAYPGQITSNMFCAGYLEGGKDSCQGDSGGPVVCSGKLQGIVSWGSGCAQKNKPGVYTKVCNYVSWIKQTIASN

Prothrombin = Prothrombin (Bos taurus, UniProt P00735); assay: Inhibitory effect against bovine thrombin
[1] = Ratio of inhibitory effect of bovine trypsin to that of bovine thrombin

SMILES	Ki (Serine protease 1) [µM]	Ki (Prothrombin) [µM]	Ratio [1]
CN=C(N)c1ccc(C[C@@H](NC(=O)CNS(=O)(=O)c2ccc3ccccc3c2)C(=O)N2CCCCC2)cc1	81.5	4.32	–
CNC(=N)c1ccc(C[C@@H](NC(=O)CNS(=O)(=O)c2ccc3ccccc3c2)C(=O)N2CCCCC2)cc1	–	–	19
N=C(NO)c1ccc(C[C@H](NS(=O)(=O)c2ccc3ccccc3c2)C(=O)N2CCCCCC2)cc1	316	1.14	–
N=C(N)c1ccc(C[C@H](NS(=O)(=O)c2ccc3ccccc3c2)C(=O)N2CCCCCC2)cc1	8.65	0.0524	166
N/C(=N\O)c1ccc(C[C@H](NS(=O)(=O)c2ccc3ccccc3c2)C(=O)N2CCCCCC2)cc1	–	–	277
CCNC(=N)c1ccc(C[C@H](NS(=O)(=O)c2ccc3ccccc3c2)C(=O)N2CCCCCC2)cc1	–	13.6	–
NN=C(N)c1ccc(C[C@@H](NC(=O)CNS(=O)(=O)c2ccc3ccccc3c2)C(=O)N2CCCCCC2)cc1	–	2.7	–
N=C(N)c1ccc(C[C@@H](NC(=O)CNS(=O)(=O)c2ccc3ccccc3c2)C(=O)N2CCCCC2)cc1	–	0.0065	–
N=C(NN)c1ccc(C[C@H](NS(=O)(=O)c2ccc3ccccc3c2)C(=O)N2CCCCCC2)cc1	3.73	0.00147	2540
N=C(NN)c1ccc(C[C@H](NS(=O)(=O)c2ccc3cc4ccccc4cc3c2)C(=O)N2CCCCCC2)cc1	–	0.001	–
N=C(NN)c1ccc(C[C@@H](NC(=O)CNS(=O)(=O)c2ccc3ccccc3c2)C(=O)N2CCCCC2)cc1	–	–	36
N=C(N)c1ccc(C[C@@H](NC(=O)CNS(=O)(=O)c2ccc3ccccc3c2)C(=O)N2CCCCCC2)cc1	–	0.02	–
N=C(N)c1ccc(C[C@H](NS(=O)(=O)c2ccc3cc4ccccc4cc3c2)C(=O)N2CCCCCC2)cc1	–	0.05	–
NN=C(N)c1ccc(C[C@@H](NC(=O)CNS(=O)(=O)c2ccc3ccccc3c2)C(=O)N2CCCCC2)cc1	192	5.37	–
CNC(=N)c1ccc(C[C@H](NS(=O)(=O)c2ccc3ccccc3c2)C(=O)N2CCCCCC2)cc1	–	–	12000
CN=C(N)c1ccc(C[C@H](NS(=O)(=O)c2ccc3ccccc3c2)C(=O)N2CCCCCC2)cc1	545	0.0455	–
